Laboratory results as given in patent US5177096A, “Substituted 5-((tetrazolyl)alkenyl)imidazoles and pharmaceutical methods of use thereof” (SmithKline Beecham Corporation, priority 1990, dated 1993).
Read-outs that look alike come from different tables or passages of the source.

System: pressor response to angiotensin II
Assay: Inhibition of pressor response to angiotensin II in conscious rats
Assay type: in vivo
Settings: Rattus norvegicus, read-out: IC50 (dose of compound needed to produce 50% inhibition of the control response to angiotensin II)
Description: Angiotensin II antagonist activity of the compounds of Formula (I) is assessed by in vitro and in vivo methods. In vitro antagonist activity is determined by the ability of the compounds to compete with ^125 I-angiotensin II for binding to vascular angiotensin II receptors and by their ability to antagonize the contractile response to angiotensin II in the isolated rabbit aorta. In vivo activity is evaluated by the efficacy of the compounds to inhibit the pressor response to exogenous angiotensin II in conscious rats and to lower blood pressure in a rat model of renin dependent hypertension.
Rats are prepared with indwelling femoral arterial and venous catheters and a stomach tube (Gellai et al., Kidney Int. 15:419, 1979). Two to three days following surgery the rats are placed in a restrainer and blood pressure is continuously monitored from the arterial catheter with a pressure transducer and recorded on a polygraph. The change in mean arterial pressure in response to intravenous injections of […] angiotensin II is compared at various time points prior to and following the administration of the compounds intravenously or orally at doses of 3 to 300 mg/kg. The dose of compound needed to produce 50% inhibition of the control response to angiotensin II (IC50) is used to estimate the potency of the compounds.

CCCCc1ncc(/C=C(\Cc2cccs2)c2nnn[nH]2)n1Cc1ccccc1Cl [Example 1, (E)-1-[2-n-Butyl-1-{(2-chlorophenyl)methyl}-1H-imidazol-5-yl]-2-(1H-tetrazol-5-yl)-3-(2-thienyl)-1-propene] showed an ED50 (iv) of 8 mg/kg and an ED50 (po, orally) of 13 mg/kg.
